{
  "source": "patent US20100129831A1",
  "about": "“METHODS FOR DIAGNOSING HYPERSENSITIVITY REACTIONS” (priority 2007, published 2010)",
  "test_system": "acute interstitial nephritis",
  "test": "oral glucocorticoid treatment of acute interstitial nephritis (case report)",
  "assay_type": "in vivo, human",
  "details": "1 mg/kg, creatinine gradually declined",
  "description": "Severe acute interstitial nephritis (AIN) was diagnosed based on needle biopsy. Oral glucocorticoid treatment (prednisone 1 mg/kg) was begun and was effective. Creatinine gradually declined over the next 8 weeks (Cr-3.5 mg/dL); glucose levels also declined. Another course of steroids was initiated, after which the creatinine level further declined, stabilizing around a level of 1.8 mg/dL, close to the previous value of 1.4 mg/dL. While investigated as to the etiology of their newly diagnosed AIN, the patient described the use of an alternative medicine hypnotic or sedative OTC, “Region-Laila.” Region's leaflet lists 4 active ingredients: Passiflora incarnata 250 mg, Scutellaria laterifolia 50 mg, Humulus Lupullus 50 mg and Melissa officinalis 25 mg.",
  "data": [
    {"smiles": "C[C@]12C=CC(=O)C=C1CC[C@@H]1[C@@H]2C(=O)C[C@@]2(C)[C@H]1CC[C@]2(O)C(=O)CO", "note": "[prednisone]", "values": [
      {"measurement": "treatment outcome in acute interstitial nephritis", "result": "effective"}
    ]}
  ]
}
